For experiment [1], the target named is T1, integrin α9β1 (Homo sapiens, UniProt P05556+Q13797).
T1 construct: A cDNA encoding the extracellular region of human integrin α9; An expression vector for the extracellular region of integrin β1; ACID coiled-coil (Velcro) peptide; FLAG; BASE coiled-coil (Velcro) peptide; made in house; host or cells: FreeStyle 293 Expression System (293-F cells)
Description: Integrin α9β1-pol-C binding inhibition assay with synthetic peptides. The settings on record: integrin α9β1 10 nM, pol-C 10 nM, 1 mM MnCl2, 10% DMSO, FIG. 15. As for the experimental part: An integrin binding assay was performed as described in the above-mentioned publication Matrix Biol. 25, […], (2006). In some experiments, integrins were preincubated with synthetic peptides at various concentrations to evaluate the inhibitory activities of the synthetic peptides. The apparent dissociation constants were determined as described in Nishiuchi, R., Murayama, O., Fujiwara, H., Gu, J., Kawakami. T., Aimoto, S., Wada, Y., and Sekiguchi, K. (2003) J. Biochem, 134, 497-504.
To further corroborate the role of EDDMMEVPY as the integrin α9β1 recognition sequence, an integrin α9β1-pol-C binding inhibition assay was performed using synthetic peptides consisting of the EDDMMEVPY sequence or a part of the sequence, Integrin α9β1 (10 nM) was incubated on microtiter plates coated with pol-C (10 nM) in the presence of 1 mM MnCl2 and various concentrations of the synthetic peptides. To prevent precipitation of the peptides, the assay was performed in the presence of 10% DMSO. Based on the amount of integrin α9β1 bound to pol-C set as 100%, the relative binding amount was calculated.

The target in experiment [2] is integrin α9β1 on RD cells (human rhabdomyosarcoma cells) (human) (UniProt Q13797). Description: cell-based or functional assay.
Chain of integrin α9β1 on RD cells (human rhabdomyosarcoma cells) (human) (Q13797 30-1035, chain 1 of 2): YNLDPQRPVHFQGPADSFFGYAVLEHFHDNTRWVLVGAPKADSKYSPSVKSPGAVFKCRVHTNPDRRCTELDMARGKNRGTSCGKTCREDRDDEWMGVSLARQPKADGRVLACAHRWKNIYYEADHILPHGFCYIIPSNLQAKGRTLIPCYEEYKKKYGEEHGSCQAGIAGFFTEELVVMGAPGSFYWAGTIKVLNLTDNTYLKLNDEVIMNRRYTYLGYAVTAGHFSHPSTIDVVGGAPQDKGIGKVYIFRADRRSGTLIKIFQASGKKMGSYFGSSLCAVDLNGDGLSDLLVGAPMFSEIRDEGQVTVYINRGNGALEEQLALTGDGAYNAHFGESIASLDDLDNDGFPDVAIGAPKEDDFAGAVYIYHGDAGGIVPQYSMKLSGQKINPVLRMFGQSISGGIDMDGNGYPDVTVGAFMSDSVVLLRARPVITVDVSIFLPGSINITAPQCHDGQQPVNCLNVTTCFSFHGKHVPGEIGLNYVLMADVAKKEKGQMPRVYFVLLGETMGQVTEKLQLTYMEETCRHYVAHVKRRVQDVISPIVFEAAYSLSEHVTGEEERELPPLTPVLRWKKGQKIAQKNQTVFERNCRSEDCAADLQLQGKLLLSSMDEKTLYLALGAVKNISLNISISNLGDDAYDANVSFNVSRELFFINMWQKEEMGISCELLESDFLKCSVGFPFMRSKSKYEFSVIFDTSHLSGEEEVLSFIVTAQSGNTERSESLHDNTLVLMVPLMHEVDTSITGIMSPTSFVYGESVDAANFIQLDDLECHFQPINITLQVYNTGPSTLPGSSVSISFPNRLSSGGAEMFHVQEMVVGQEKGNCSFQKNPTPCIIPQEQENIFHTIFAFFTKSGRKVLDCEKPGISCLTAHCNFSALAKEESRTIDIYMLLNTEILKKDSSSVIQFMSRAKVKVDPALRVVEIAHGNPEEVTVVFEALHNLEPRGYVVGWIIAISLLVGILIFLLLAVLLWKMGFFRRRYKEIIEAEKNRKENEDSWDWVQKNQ
Chain of integrin α9β1 on RD cells (human rhabdomyosarcoma cells) (human) (P05556 21-798, chain 2 of 2, further chain): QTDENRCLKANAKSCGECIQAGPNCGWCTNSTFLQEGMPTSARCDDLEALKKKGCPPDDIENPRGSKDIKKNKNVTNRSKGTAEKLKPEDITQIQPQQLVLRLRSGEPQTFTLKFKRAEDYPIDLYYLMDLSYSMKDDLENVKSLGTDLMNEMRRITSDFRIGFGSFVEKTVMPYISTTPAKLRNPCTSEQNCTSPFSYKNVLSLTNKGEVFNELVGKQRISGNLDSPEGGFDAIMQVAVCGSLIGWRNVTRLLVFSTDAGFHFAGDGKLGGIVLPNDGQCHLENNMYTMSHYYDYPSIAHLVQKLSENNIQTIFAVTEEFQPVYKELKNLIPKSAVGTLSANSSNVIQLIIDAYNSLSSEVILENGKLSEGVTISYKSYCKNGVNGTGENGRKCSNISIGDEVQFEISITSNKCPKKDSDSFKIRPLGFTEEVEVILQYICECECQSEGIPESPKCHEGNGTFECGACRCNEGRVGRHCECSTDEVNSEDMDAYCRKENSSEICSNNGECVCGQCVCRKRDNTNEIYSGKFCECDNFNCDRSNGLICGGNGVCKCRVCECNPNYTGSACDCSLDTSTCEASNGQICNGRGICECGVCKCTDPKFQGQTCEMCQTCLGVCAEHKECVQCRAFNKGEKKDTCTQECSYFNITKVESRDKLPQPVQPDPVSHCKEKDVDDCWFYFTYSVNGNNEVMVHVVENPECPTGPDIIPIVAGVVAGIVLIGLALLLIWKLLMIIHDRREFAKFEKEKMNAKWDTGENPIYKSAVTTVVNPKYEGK
For experiment [3], the system named is cardiac stem cells. Description: Colony forming ability of GFP label-retaining cells (cardiac stem cells). The settings on record: 100 nM coating, 1×10^4 cells/well, 2 weeks, FIG. 26. The format is cell-based, mouse. From the text:
(§1) Tissue stem cells are known to generally have a very prolonged, cell cycle and thus allow labeling compounds incorporated into DNA and the cell interior to remain stable for a long period of time without decay along with cell division, This nature can be advantageously used to identify and separate tissue stem cells by short-term labeling or cells with a nucleotide analog such as bromodeoxyuridine (BrdU) or a fusion protein of green fluorescent protein (hereinafter referred to as “GFP”) and a nucleoprotein, histone, followed by selection of cells retaining the label for a long period of time (label-retaining cells). In this experiment, with the use of a tetracycline-inducible expression system in combination with the ROSA26 promoter, a fusion protein of GFP and histone H2B (H2B-GFP) was expressed in the heart of a mouse for 2 weeks starting 1 week before birth, and 6 weeks later, cardiac stem cells were separated as GFP label-retaining cells from the heart.
To explore whether cardiac stem cells proliferate on a polydom-coated plate, colony formation was measured, as an indicator of proliferation. A Falcon 6-well plate was coated with 800 μl/well of 100 nM polydom or fibronectin at 4° C. overnight. GFP label-retaining cells were collected by FACSAria and suspended in IMDM containing 10% fetal calf serum. […] After drying, the number of colonies was counted under a microscope.

Experiment [4] has as its system hematopoietic stem cells. Description: Proliferation of hematopoietic stem cells on coated plates. The format is cell-based, mouse. As for the experimental part:
(§2) Bone marrow cells were flushed out from the femurs and tibias of three mice of 6 to 7 weeks of age (C57BL/6J) and dissociated with a 22G needle. The cells were reacted with a biotin-labeled anti-lineage antibody for 30 minutes and subsequently with an anti-blotin antibody-conjugated magnetic beads, and lineage-positive cells were removed by automated magnetic cell sorter autoMACS (Miltenyi Biotec). After staining with PE-CD3, PE-Mac1, PE-Gr1, PE-Ter119, PE-B220, FTTC-Sca1 and APC-c-Kit, a lineage(−) Sca1(+) c-Kit (high) cell fraction was sorted out using FACSAria and used for the experiments described below.
(§3) The above-prepared cells were plated on a 48-well plate coated with a recombinant polydom protein or fibronectin. The same type of plate without coating was used as a control. The medium used was RPMI containing 10% fetal calf serum, thrombopoietin (30 ng/ml) and flt3 ligand (100 ng/ml). For the examination of cell proliferation, the cells were plated in duplicate wells for each coating at 1000 cells/well and started to be cultured, and the cell number was counted at the start of culture, and on day 2 and day 3. The remaining cells were divided into three aliquots, plated in wells for each coating, and subjected to FACS analysis on day 3 after the start of culture. For the FACS analysis, staining with an antibody cocktail containing PE-CD3, PE-Mac1, PE-Gr1, PE-Ter119, PE-B220, FITC-Sca1 and APC-c-Kit was performed and FACSCont was used.
The above-prepared cells were divided into three groups and plated on 48-well plates at 5000 cells/well. The medium used was RPMI containing 10% fetal calf serum, thrombopoietin (30 ng/ml) and flt3 ligand (100 ng/ml). For an EDDMMEVPY peptide treatment group, 2 μl of the peptide was added to each well at the final concentration of 50 μM, and for the other two groups, 2 μl of PBS was added to each well. Then, the culture was performed at […] for 2 hours. Subsequently, the cells were transferred to 48-well plates coated with a recombinant polydom protein or fibronectin. The cells cultured in the presence of the peptide were transferred to the recombinant polydom protein-coated plate, and the cells in one of the other two groups were transferred to the recombinant polydom protein-coated plate, and the cells in the remaining group were transferred to the fibronectin-coated plate. The culture was continued for 3 days and the cell numbers were counted on day 2, day 3 and […].

Experiment [5] relates to hematopoietic stem cells. The experiment is described as follows: FACS analysis of differentiation of hematopoietic stem cells on coated wells. It is filed as cell-based, mouse. The settings on record: day 3 of culture on coated well, FIG. 19. As for the experimental part: as §2, §3
Background: In flow cytometry, cells or beads pass a laser one at a time.

Experiment [6] has as its system cardiac stem cells. The experiment is described as follows: Cell adhesion assay using GFP label-retaining cells (cardiac stem cells). It is filed as cell-based, mouse. The settings on record: 100 nM coating, 12 hours, serum-free IMDM, FIG. 25.
Excerpt: as §1
To explore whether polydom serves as a scaffold for integrin α9β1-expressing cardiac stem cells, cardiac stem cells were separated as GFP label-retaining cells and subjected to a cell adhesion assay. A 96-well immuno plate (Nunc Maxisorp) was coated with 50 μl/well of 100 nM polydom or fibronectin at 4° C. overnight, GFP label-retaining cells were collected by FACSAria and suspended at 1×10^6 cells/ml in serum-free Iscove's Modified Dulbecco Medium (hereinafter referred to as “IMDM”). The cell suspension was plated at 100 μl/well and cultured in a 5% CO2 incubator at 37° C. for 12 hours. After three washes with PBS, the cells were fixed with 100 μl/well of 3.7% formalin for 15 minutes. Then, the cells were incubated with 0.5% toluidine blue (150 μl/well) for 10 minutes and washed with MilliQ water. After drying, the number of attached cells was counted under a microscope.

T1 sequence (Q13797 30-981 limits assumed): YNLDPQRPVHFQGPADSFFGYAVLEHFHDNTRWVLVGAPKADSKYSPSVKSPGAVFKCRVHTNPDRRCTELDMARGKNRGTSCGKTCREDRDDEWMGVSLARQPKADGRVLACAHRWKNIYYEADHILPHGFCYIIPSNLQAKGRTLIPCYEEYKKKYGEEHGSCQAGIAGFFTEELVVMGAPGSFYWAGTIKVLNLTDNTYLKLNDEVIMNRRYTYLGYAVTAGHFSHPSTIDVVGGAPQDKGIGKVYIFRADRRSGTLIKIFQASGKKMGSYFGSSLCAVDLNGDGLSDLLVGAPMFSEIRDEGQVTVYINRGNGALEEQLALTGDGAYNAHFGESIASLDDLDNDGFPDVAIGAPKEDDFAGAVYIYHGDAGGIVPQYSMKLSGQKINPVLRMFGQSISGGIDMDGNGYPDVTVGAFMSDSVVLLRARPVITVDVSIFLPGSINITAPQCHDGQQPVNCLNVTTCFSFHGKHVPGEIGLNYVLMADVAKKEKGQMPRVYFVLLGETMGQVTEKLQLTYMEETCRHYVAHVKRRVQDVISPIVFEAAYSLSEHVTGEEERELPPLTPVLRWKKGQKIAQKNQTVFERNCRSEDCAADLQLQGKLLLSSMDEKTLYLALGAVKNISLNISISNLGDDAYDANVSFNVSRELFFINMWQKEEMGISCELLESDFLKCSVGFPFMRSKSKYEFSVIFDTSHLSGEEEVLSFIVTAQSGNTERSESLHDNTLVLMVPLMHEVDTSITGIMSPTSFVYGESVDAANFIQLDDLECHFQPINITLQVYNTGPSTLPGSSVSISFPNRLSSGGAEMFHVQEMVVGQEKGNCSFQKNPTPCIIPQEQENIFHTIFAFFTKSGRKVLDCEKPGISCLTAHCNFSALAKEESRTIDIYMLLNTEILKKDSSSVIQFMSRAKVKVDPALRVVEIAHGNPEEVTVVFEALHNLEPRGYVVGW
T1 sequence (P05556 21-728 limits assumed): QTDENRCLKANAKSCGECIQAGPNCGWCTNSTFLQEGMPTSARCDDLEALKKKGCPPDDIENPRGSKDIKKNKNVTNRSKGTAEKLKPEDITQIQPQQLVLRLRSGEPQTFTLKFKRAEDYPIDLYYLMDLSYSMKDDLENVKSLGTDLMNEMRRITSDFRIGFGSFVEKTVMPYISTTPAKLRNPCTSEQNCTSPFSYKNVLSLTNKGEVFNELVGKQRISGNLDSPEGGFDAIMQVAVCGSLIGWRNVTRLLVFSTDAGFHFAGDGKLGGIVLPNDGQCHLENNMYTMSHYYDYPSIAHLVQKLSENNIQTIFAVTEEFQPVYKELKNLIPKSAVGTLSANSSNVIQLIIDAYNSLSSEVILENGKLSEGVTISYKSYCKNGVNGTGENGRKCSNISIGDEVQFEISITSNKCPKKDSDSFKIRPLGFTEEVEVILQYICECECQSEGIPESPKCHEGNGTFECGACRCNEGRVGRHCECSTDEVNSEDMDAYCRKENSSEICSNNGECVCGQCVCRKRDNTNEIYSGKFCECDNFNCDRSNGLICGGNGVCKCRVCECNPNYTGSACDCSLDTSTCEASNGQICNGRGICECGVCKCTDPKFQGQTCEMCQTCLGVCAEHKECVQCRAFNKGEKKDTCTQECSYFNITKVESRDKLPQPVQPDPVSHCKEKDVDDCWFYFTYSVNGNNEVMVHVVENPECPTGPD

TYSSPEDGIHE [reference compound]: the “inhibitory potency toward binding of integrin α9β1 to pol-C” value in experiment [1] is “barely inhibitory”.

With DMMEVPY, the “inhibitory potency toward binding of integrin α9β1 to pol-C” value in experiment [1] was “nearly as potent as EDDMMEVPY”.

In turn, “full-length polydom (recombinant mouse SVEP1) (from UniProt A2AVA0 18-3567) (ligand)” showed an adhesion of RD cells to coated full-length polydom in experiment [2] of 3 µg/mL.

As for fibronectin [reference compound], the “colony forming activity (colony count relative to the number of cells plated)” value in experiment [3] is listed as “about 0.4%”. In experiment [4] (1000 cells/well, counted to day 3, versus uncoated control, FIG. 18), the “proliferation of hematopoietic stem cells on coated wells” value is given as “proliferated as with the control”. Moreover, in experiment [4] (5000 cells/well, counted day 2 to day 4, FIG. 20), the “proliferation of hematopoietic stem cells on coated plate after PBS pretreatment” value was “proliferated”. The “expression of c-Kit on hematopoietic stem cells” value in experiment [5] is on record as “increased expression of c-Kit”. The “adhesion of cardiac stem cells to coated plate” value in experiment [6] is on record as “a large number of the cells adhered”.

For the origin of these results see US20150086557A1, “NOVEL INTEGRIN alpha9 beta1 LIGAND AND USES THEREOF” (OSAKA UNIVERSITY, priority 2012, published 2015).
